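Cultured in 96-well plates, cells were exposed to test compound for 48 hours across five concentrations. TGI is the concentration that stops growth completely.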
Tests used:
Experiment in all cases: DTP human tumour cell line panel, 48 h
SK-MEL-5 melanoma = tested on: SK-MEL-5 melanoma
OVCAR-3 ovarian = tested on: OVCAR-3 ovarian
TK-10 renal = tested on: TK-10 renal
U251 CNS = tested on: U251 CNS
PC-3 prostate = tested on: PC-3 prostate
SW-620 colon = tested on: SW-620 colon
SNB-75 CNS = tested on: SNB-75 CNS
RPMI-8226 leukemia = tested on: RPMI-8226 leukemia
HCT-116 colon = tested on: HCT-116 colon
A549 NSCLC = tested on: A549 NSCLC
DU-145 prostate = tested on: DU-145 prostate
SF-268 CNS = tested on: SF-268 CNS
HL-60(TB) leukemia = tested on: HL-60(TB) leukemia
NCI-H522 lung = tested on: NCI-H522 lung
SNB-19 CNS = tested on: SNB-19 CNS
SN12C renal = tested on: SN12C renal
T-47D breast = tested on: T-47D breast
UACC-62 melanoma = tested on: UACC-62 melanoma
K-562 leukemia = tested on: K-562 leukemia
HOP-62 NSCLC = tested on: HOP-62 NSCLC

Row | Compound | TGI (SK-MEL-5 melanoma) | TGI (OVCAR-3 ovarian) | TGI (TK-10 renal) | TGI (U251 CNS) | TGI (PC-3 prostate) | TGI (SW-620 colon) | TGI (SNB-75 CNS) | TGI (RPMI-8226 leukemia) | TGI (HCT-116 colon) | TGI (A549 NSCLC) | TGI (DU-145 prostate) | TGI (SF-268 CNS) | TGI (HL-60(TB) leukemia) | TGI (NCI-H522 lung) | TGI (SNB-19 CNS) | TGI (SN12C renal) | TGI (T-47D breast) | TGI (UACC-62 melanoma) | TGI (K-562 leukemia) | TGI (HOP-62 NSCLC)
1 | N#Cc1c(N)c2c(c(-c3ccccc3)c1-c1ccccc1)C(=O)N(Nc1ccccc1)C2=O | 78.5 µM | 78.1 µM | > 100 µM | > 100 µM | > 100 µM | > 100 µM | > 100 µM | > 100 µM | 43.7 µM | > 100 µM | > 100 µM | > 100 µM | > 100 µM | > 100 µM | > 100 µM | > 100 µM | 71 µM | > 100 µM | > 100 µM | 
2 | CCOC(=O)NC(Nc1ccc(F)c(F)c1)(C(=O)OCC)C(F)(F)F (stereo not given) | > 100 µM | > 100 µM | > 100 µM | > 100 µM | > 100 µM | > 100 µM | > 100 µM | > 100 µM | > 100 µM | > 100 µM | > 100 µM | > 100 µM | > 100 µM | > 100 µM | > 100 µM | > 100 µM | > 100 µM | > 100 µM | > 100 µM | > 100 µM
3 | COc1cccc(CCn2c(N)c(C(=O)O)c3ccc([N+](=O)[O-])cc3c2=O)c1 | > 100 µM | > 100 µM |  | > 100 µM | > 100 µM | > 100 µM | 90.3 µM | > 100 µM | > 100 µM | > 100 µM | > 100 µM | > 100 µM | > 100 µM | 75.8 µM | > 100 µM | > 100 µM | > 100 µM | > 100 µM | > 100 µM | > 100 µM
4 | N#C/C(=C\c1ccc(F)cc1)c1nc2ccccc2c(=O)[nH]1 |  |  | > 100 µM | > 100 µM | > 100 µM | > 100 µM | 74.5 µM | > 100 µM | > 100 µM | > 100 µM | > 100 µM | > 100 µM | > 100 µM | > 100 µM | > 100 µM | > 100 µM | > 100 µM | > 100 µM | > 100 µM | > 100 µM
5 | COc1cc(/C=C/C=C2\CCC/C(=C\C=C\c3ccc(O)c(OC)c3)C2=O)ccc1O | 27.2 µM | > 100 µM | 52 µM | > 100 µM | 38.2 µM | 51.1 µM | > 100 µM | 28.5 µM | 49 µM | 26.8 µM | > 100 µM | 40.4 µM | > 100 µM | 3.39 µM | > 100 µM | 65.8 µM | 36.7 µM | 31.6 µM | > 100 µM | 52.7 µM
6 | CCOC(=O)c1c(C)noc1/N=N/N(CCO)CCO | 32.5 µM | 59.4 µM | > 100 µM | > 100 µM | > 100 µM | > 100 µM | 46.1 µM |  | > 100 µM | > 100 µM | > 100 µM | > 100 µM | > 100 µM | 70.7 µM | > 100 µM | > 100 µM | 39.7 µM | > 100 µM | > 100 µM | > 100 µM
7 | COc1ccc(C2C3=C(COC3=O)OC(C)(C)Oc3cc4c(cc32)OCO4)cc1 (stereo not given) | 99.8 µM | > 100 µM | 97 µM | > 100 µM | 73.4 µM | > 100 µM | 23 µM | > 100 µM | > 85.4 µM | > 100 µM | > 100 µM | > 100 µM | > 61.3 µM | > 69.5 µM | > 100 µM | > 100 µM | > 87.4 µM | > 66.6 µM | > 61.6 µM | > 100 µM
8 | Cc1cc(C)c(S(=O)(=O)N(CCCCCCN)OCCCN)c(C)c1 | 37.6 µM | 46 µM | 29.4 µM | 32.6 µM | 28.1 µM | 40.4 µM | 22.8 µM | > 100 µM | 31.7 µM | > 100 µM | 31.3 µM | 36.3 µM | 33.3 µM | 27.3 µM | 38.2 µM | 37.2 µM | 37.4 µM | 40 µM | > 100 µM | 46 µM
9 | CCCCC1C(=O)N(c2ccc(S(=O)(=O)Nc3ccccn3)cc2)N(c2ccc(O)c(C(=O)O)c2)C1=O (stereo not given) | > 100 µM | > 100 µM |  | > 100 µM | > 100 µM | > 100 µM | > 100 µM | > 100 µM | > 100 µM | > 100 µM | > 100 µM | > 100 µM | > 100 µM | > 100 µM | > 100 µM | > 100 µM | > 100 µM | > 100 µM | > 100 µM | 
10 | CS(=O)(=O)N1CC(CCl)c2ccc(NCCN)cc21 (stereo not given) | > 100 µM | > 100 µM | > 100 µM | > 100 µM | > 100 µM | > 100 µM | 40.1 µM | > 100 µM | > 100 µM | > 100 µM | > 100 µM | > 100 µM | > 100 µM | > 100 µM | > 100 µM | > 100 µM | > 100 µM |  | > 100 µM | 32.1 µM
11 | NC(N)=NCc1ccc2c(c1)OCO2 | 49.7 µM | > 100 µM | > 100 µM | > 100 µM | > 100 µM | > 100 µM | > 100 µM | > 100 µM | > 100 µM | > 100 µM | > 100 µM | > 100 µM | > 100 µM | > 100 µM | > 100 µM |  | > 100 µM | > 100 µM | > 100 µM | > 100 µM
12 | Cc1ccc(S(=O)(=O)NC(=O)NC(C(=O)O)C(C)O)cc1 (stereo not given) | > 100 µM |  | > 100 µM | > 100 µM | > 100 µM | > 100 µM | > 100 µM | > 100 µM | > 100 µM | > 100 µM | > 100 µM | > 100 µM | > 100 µM | > 100 µM | > 100 µM | > 100 µM | > 100 µM | > 100 µM | > 100 µM | > 100 µM

Source: PubChem BioAssay (NCI)
